Assay results published in US7442687B2, “2-polycyclic propynyl adenosine analogs having A2A agonist activity” (The University of Virginia Patent Foundation, priority 2004, dated 2008).
Read-outs that look alike come from different tables or passages of the source.

What was measured:
human A1 AR = target: T1, human A1 AR (Homo sapiens, UniProt P30542); assay: Radioligand binding (125I-ABA competition) to human A1 AR in CHO K1 cell membranes; conditions: read-out: Binding Affinity A1
T1 construct: expressed in transfected cells
T1 sequence (P30542 1-326): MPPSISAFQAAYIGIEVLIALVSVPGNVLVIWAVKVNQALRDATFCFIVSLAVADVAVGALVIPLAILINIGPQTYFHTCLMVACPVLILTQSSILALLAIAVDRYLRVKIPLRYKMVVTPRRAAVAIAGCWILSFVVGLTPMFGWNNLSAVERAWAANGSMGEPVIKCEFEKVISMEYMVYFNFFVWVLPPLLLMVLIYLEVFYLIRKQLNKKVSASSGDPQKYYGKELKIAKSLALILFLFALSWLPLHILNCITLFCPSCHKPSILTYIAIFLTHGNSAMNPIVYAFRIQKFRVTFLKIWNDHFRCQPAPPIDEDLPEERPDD
Method: (§1) Sf9 cells were cultured in Grace's medium supplemented with 10% fetal bovine serum, 2.5 μg/ml amphotericin B and 50 μg/ml gentamycin in an atmosphere of 50% N2/50% O2. Viral infection was performed at a density of 2.5×10^6 cells/mL with a multiplicity of infection of two for each virus used. Infected cells were harvested 3 days post-infection and washed twice in insect PBS (PBS pH 6.3). Cells were then resuspended in lysis buffer (20 mM HEPES pH 7.5, 150 mM NaCl, 3 mM MgCl2, 1 mM β-mercaptoethanol (BME), 5 μg/mL leupeptin, 5 μg/mL pepstatin A, 1 μg/mL aprotinin, and 0.1 mM PMSF) and snap frozen for storage at −80° C. Cells were thawed on ice, brought to 30 mL total volume in lysis buffer, and burst by N2 cavitation (600 psi for 20 minutes). A low-speed centrifugation was performed to remove any unlysed cells (1000×g for 10 minutes), followed by a high-speed centrifugation (17,000×g for 30 minutes). The pellet from the final centrifugation was homogenized in buffer containing 20 mM HEPES pH 8, 100 mM NaCl, 1% glycerol, 2 μg/mL leupeptin, 2 μg/mL pepstatin A, 2 μg/mL Aprotinin, 0.1 mM PMSF, and 10 μM GDP using a small glass homogenizer followed by passage through a 26 gauge needle. Membranes were aliquoted, snap frozen in liquid N2, and stored at −80° C. Membranes from cells stably expressing the human A1 AR (CHO K1 cells) or A3 AR (HEK 293 cells) were prepared as described (Robeva et al., 1996).
(§2) Radioligand binding to recombinant human A2A receptors in Sf9 cell membranes was performed using either the radio labeled agonist, ^125I-APE (Luthin et al., 1995) or the radio labeled antagonist, ^125I-ZM241385 (^1251-ZM). To detect the high affinity, GTPγS-sensitive state of A1 and A3 AR, we used the agonist, ^125I-ABA (Linden et al., 1985;Linden et al., 1993). Binding experiments were performed in triplicate with 5 μg (A2A) or 25 μg (A1 and A3) membrane protein in a total volume of 0.1 mL HE buffer (20 mM HEPES and 1 mM EDTA) with 1 U/mL adenosine deaminase and 5 mM MgCl2 with or without 50 μM GTPγS. Membranes were incubated with radioligands at room temperature for three hours (for agonists) or two hours (for antagonists) in Millipore Multiscreen® 96-well GF/C filter plates and assays were terminated by rapid filtration on a cell harvester (Brandel, Gaithersburg, Md.) followed by 4×150 μl washes over 30 seconds with ice cold 10 mM Tris-HCl, pH 7.4, 10 mM MgCl2. Nonspecific binding was measured in the presence of 50 μM NECA. Competition binding assays were performed as described (Robeva et al., 1996) using 0.5-1 nM ^125I-APE, ^125I-ZM241385, or ^125I-ABA. […] The Ki values for competing compound binding to a single site were derived from IC50 values with correction for radioligand and competing compound depletion as described previously (Linden, 1982).

[1] = target: T2, recombinant human A2A receptors (Homo sapiens, UniProt P29274); assay: Radioligand binding to recombinant human A2A receptors in Sf9 cell membranes; conditions: recombinant human A2A receptor, 125I-APE or 125I-ZM241385, read-out: Binding Affinity A2A
T2 construct: expressed in transfected cells; host or cells: Sf9 insect cells, viral infection
Method: as §1, §2

human A3 AR = target: T3, human A3 AR (Homo sapiens, UniProt P0DMS8); assay: Radioligand binding (125I-ABA competition) to human A3 AR in HEK 293 cell membranes; conditions: read-out: Binding Affinity A3
T3 construct: expressed in transfected cells
T3 sequence (P0DMS8 1-318): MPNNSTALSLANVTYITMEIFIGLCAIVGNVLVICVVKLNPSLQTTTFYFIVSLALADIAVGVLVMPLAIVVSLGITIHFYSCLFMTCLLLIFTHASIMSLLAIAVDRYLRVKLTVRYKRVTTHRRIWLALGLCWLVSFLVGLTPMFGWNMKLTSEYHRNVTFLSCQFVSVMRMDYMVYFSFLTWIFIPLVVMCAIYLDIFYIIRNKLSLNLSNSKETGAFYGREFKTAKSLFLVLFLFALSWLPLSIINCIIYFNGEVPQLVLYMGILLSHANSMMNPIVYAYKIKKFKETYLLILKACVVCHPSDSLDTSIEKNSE
Method: as §1, §2

human neutrophils = assay: Human neutrophil oxidative activity, luminol-enhanced chemiluminescence (TNF-primed, fMLP-stimulated); assay type: cell-based; conditions: peak chemiluminescence
Text: Chemiluminescence Methods: Luminol enhanced chemiluminescence, a measure of neutrophil oxidative activity, is dependent upon both superoxide production and mobilization of the granule enzyme myeloperoxidase. The light is emitted from unstable high-energy oxygen species such as hypochlorous acid and singlet oxygen generated by activated neutrophils.
Purified human neutrophils (2×10^6/ml) suspended in Hanks balanced salt solution containing 0.1% human serum albumin (HA), adenosine deaminase (1 U/mL) and rolipram (100 nM) were incubated (37° C.) in a water bath for 15 min with or without rhTNF(10 U/ml). Following incubation 100 µL aliquots of the PMN were transferred to wells (White walled clear bottom 96 well tissue culture plates Costar #3670; 2 wells/condition) containing […] and luminol (final concentration […]) with or without adenosine agonist (final agonist concentrations 0.01-1000 nM). The plate was incubated 5 min (37° C.) and then FMLP (501 in HA; final concentration […]) was added to all wells.
Peak chemiluminescence was determined with a Victor 1420 Multilabel Counter in the chemiluminescence mode using the Wallace Workstation software. Data are presented as peak chemiluminescence as percent of activity in the absence of an adenosine agonist. The EC50 was determined using PRISM software. All compounds were tested with PMNs from three separate donors.
Purified neutrophils (˜98% neutrophils and >95% viable by trypan blue exclusion) containing <1 platelet per 5 neutrophils and <50 pg/ml endotoxin (limulus amebocyte lysate assay) were obtained from normal heparinized (10 U/ml) venous blood by a one step Ficoll-hypaque separation procedure (A. Ferrante et al., J. Immunol. Meth., 36, 109 (1980)).
Luminol-enhanced chemiluminescence, a measure of neutrophil oxidative activity, is dependent upon both superoxide production and mobilization of the lysosomal granule enzyme myeloperoxidase. The light is emitted from unstable high-energy oxygen species generated by activated neutrophils. Purified neutrophils (5-10×10^5/ml) were incubated in Hanks balanced salt solution containing 0.1% human serum albumin (1 ml) with the tested A2A agonist with or without rolipram and with or without tumor necrosis factor-alpha (1 U/ml) for 30 minutes at 37° C. in a shaking water bath. Then luminol (1×10^−4 M) enhanced f-met-leu-phe (1 mcM) stimulated chemiluminescence was read with a Chronolog® Photometer (Crono-log Corp., Havertown, Pa.) at 37° C. for 2-4 minutes. Chemiluminescence is reported as relative peak light emitted (=height of the curve) compared to samples with tumor necrosis factor-alpha and without agonist or rolipram.

[2] = human neutrophil experiment with Rolipram, read-out: Functional + Roli
[3] = human neutrophil experiment without Rolipram, read-out: Functional

T2 sequence (P29274 whole entry): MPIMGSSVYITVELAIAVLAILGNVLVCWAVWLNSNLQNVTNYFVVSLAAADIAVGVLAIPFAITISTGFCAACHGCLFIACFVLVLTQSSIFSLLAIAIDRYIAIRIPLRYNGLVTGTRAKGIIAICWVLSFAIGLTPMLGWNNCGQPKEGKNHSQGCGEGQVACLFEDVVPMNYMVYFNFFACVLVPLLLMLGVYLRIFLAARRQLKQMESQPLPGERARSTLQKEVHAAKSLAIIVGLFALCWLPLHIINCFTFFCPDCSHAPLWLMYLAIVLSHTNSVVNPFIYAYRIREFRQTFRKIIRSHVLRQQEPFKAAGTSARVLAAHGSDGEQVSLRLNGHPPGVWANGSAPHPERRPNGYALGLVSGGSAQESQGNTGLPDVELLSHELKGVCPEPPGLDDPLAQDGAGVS

SMILES | Ki (human A1 AR) [nM] | Ki [1] [nM] | Ki (human A3 AR) [nM] | EC50 (human neutrophils; [2]) [nM] | EC50 (human neutrophils; [3]) [nM] | EC50 (human neutrophils; Homo sapiens, Neutrophil, human neutrophil experiment with Rolipram, read-out: Functional + Roli) [nM] | EC50 (human neutrophils; Homo sapiens, Neutrophil, human neutrophil experiment without Rolipram, read-out: Functional) [nM]
CCNC(=O)[C@H]1O[C@@H](n2cnc3c(N)nc(C#CC4(O)C5CC6CC(C5)CC4C6)nc32)C(O)C1O (stereo in doubt) [Example 3, 5-[6-Amino-2-(2-hydroxy-adamantan-2-ylethynyl)-purin-9-yl]-3,4-dihydroxy-tetrahydro-furan-2-carboxylic acid ethylamide] | 75 | 0.2 | 4 | – | – | 0.22 | 3.8
CCNC(=O)[C@H]1O[C@@H](n2cnc3c(N)nc(C#CC4(O)CCCC5CCCCC54)nc32)C(O)C1O (stereo in doubt) [Example 4, 5-[6-Amino-2-(1-hydroxy-decahydro-naphthalen-1-ylethynyl)-purin-9-yl]-3,4-dihydroxy-tetrahydro-furan-2-carboxylic acid ethylamide] | 7.3 | 6.4 | 28.3 | 3.7 | 25 | – | –
Nc1nc(C#CC2(O)C3CC4CC(C3)CC2C4)nc2c1ncn2[C@@H]1O[C@H](CO)C(O)C1O (stereo in doubt) [Example 6, 2-[6-Amino-2-(2-hydroxy-adamantan-2-ylethynyl)-purin-9-yl]-5-hydroxymethyl-tetrahydro-furan-3,4-diol] | 28.5 | 0.6 | 2.9 | 0.3 | 4.9 | – | –

Second part, the compound after the results:

Ki (human A1 AR) [nM] | Ki [1] [nM] | Ki (human A3 AR) [nM] | EC50 (human neutrophils; [2]) [nM] | EC50 (human neutrophils; [3]) [nM] | EC50 (human neutrophils; Homo sapiens, Neutrophil, human neutrophil experiment with Rolipram, read-out: Functional + Roli) [nM] | EC50 (human neutrophils; Homo sapiens, Neutrophil, human neutrophil experiment without Rolipram, read-out: Functional) [nM] | SMILES
31 | 0.2 | 10 | 0.22 | 3.1 | – | – | CCNC(=O)[C@H]1O[C@@H](n2cnc3c(N)nc(C#CC4(O)CC5CCC4C5)nc32)C(O)C1O (single isomer, unassigned) [Example 1, 5-[6-Amino-2-(2-hydroxy-bicyclo[2.2.1]hept-2-ylethynyl)-purin-9-yl]-3,4-dihydroxy-tetrahydro-furan-2-carboxylic acid ethylamide]
11 | 0.3 | 3 | 0.058 | 0.5 | – | – | CCNC(=O)[C@H]1O[C@@H](n2cnc3c(N)nc(C#CC4(O)CC5CCC4C5)nc32)C(O)C1O (single isomer, unassigned) [Example 2, 5-[6-Amino-2-(2-hydroxy-bicyclo[2.2.1]hept-2-ylethynyl)-purin-9-yl]-3,4-dihydroxy-tetrahydro-furan-2-carboxylic acid ethylamide]
2.6 | 0.7 | 4.9 | 0.28 | 2.5 | – | – | CCNC(=O)[C@H]1O[C@@H](n2cnc3c(N)nc(C#CC4(O)CCCC5CCCCC54)nc32)C(O)C1O (stereo in doubt) [Example 5, 5-[6-Amino-2-(1-hydroxy-decahydro-naphthalen-1-ylethynyl)-purin-9-yl]-3,4-dihydroxy-tetrahydro-furan-2-carboxylic acid ethylamide]
